Assay results as given in PubChem BioAssay (NCI).
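48-hour exposure; five concentrations; linearly interpolated endpoints. The concentration for full growth arrest is given as TGI.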

Columns and labels:
Assay in all cases: NCI tumour cell line growth inhibition, 48 h
SK-MEL-5 melanoma = tested on: SK-MEL-5 melanoma
IGROV1 ovarian = tested on: IGROV1 ovarian
HCT-116 colon = tested on: HCT-116 colon
DMS 273 small cell lung = tested on: DMS 273 small cell lung
RXF 393 renal = tested on: RXF 393 renal
UO-31 renal = tested on: UO-31 renal
NCI/ADR-RES ovarian = tested on: NCI/ADR-RES ovarian
NCI-H23 lung = tested on: NCI-H23 lung
SNB-78 CNS = tested on: SNB-78 CNS
SW-620 colon = tested on: SW-620 colon
KM12 colon = tested on: KM12 colon
SNB-75 CNS = tested on: SNB-75 CNS
SF-539 CNS = tested on: SF-539 CNS
HCT-15 colon = tested on: HCT-15 colon
OVCAR-4 ovarian = tested on: OVCAR-4 ovarian
U251 CNS = tested on: U251 CNS
P388 leukemia = tested on: P388 leukemia
NCI-H522 lung = tested on: NCI-H522 lung
CCRF-CEM leukemia = tested on: CCRF-CEM leukemia
SF-295 CNS = tested on: SF-295 CNS
RPMI-8226 leukemia = tested on: RPMI-8226 leukemia
A498 renal = tested on: A498 renal
COLO 205 colon = tested on: COLO 205 colon
OVCAR-5 ovarian = tested on: OVCAR-5 ovarian
UACC-62 melanoma = tested on: UACC-62 melanoma
MOLT-4 leukemia = tested on: MOLT-4 leukemia
OVCAR-8 ovarian = tested on: OVCAR-8 ovarian
A549 NSCLC = tested on: A549 NSCLC
SK-MEL-28 melanoma = tested on: SK-MEL-28 melanoma
MALME-3M melanoma = tested on: MALME-3M melanoma
SN12K1 renal = tested on: SN12K1 renal
SK-OV-3 ovarian = tested on: SK-OV-3 ovarian
HT29 colon = tested on: HT29 colon
EKVX NSCLC = tested on: EKVX NSCLC
DLD-1 colon = tested on: DLD-1 colon
P388/ADR leukemia = tested on: P388/ADR leukemia
SNB-19 CNS = tested on: SNB-19 CNS
HOP-92 NSCLC = tested on: HOP-92 NSCLC
HL-60(TB) leukemia = tested on: HL-60(TB) leukemia
M19-MEL melanoma = tested on: M19-MEL melanoma
UACC-257 melanoma = tested on: UACC-257 melanoma
KM20L2 colon = tested on: KM20L2 colon
NCI-H460 lung = tested on: NCI-H460 lung
HCC-2998 colon = tested on: HCC-2998 colon
K-562 leukemia = tested on: K-562 leukemia
SK-MEL-2 melanoma = tested on: SK-MEL-2 melanoma
CAKI-1 renal = tested on: CAKI-1 renal
LOX IMVI melanoma = tested on: LOX IMVI melanoma
SN12C renal = tested on: SN12C renal
MCF7 breast = tested on: MCF7 breast
HOP-18 NSCLC = tested on: HOP-18 NSCLC
SF-268 CNS = tested on: SF-268 CNS
OVCAR-3 ovarian = tested on: OVCAR-3 ovarian
MDA-MB-435 = tested on: MDA-MB-435
NCI-H226 lung = tested on: NCI-H226 lung
RXF-631 renal = tested on: RXF-631 renal
ACHN renal = tested on: ACHN renal
HOP-62 NSCLC = tested on: HOP-62 NSCLC
BT-549 breast = tested on: BT-549 breast
DMS 114 small cell lung = tested on: DMS 114 small cell lung
PC-3 prostate = tested on: PC-3 prostate
T-47D breast = tested on: T-47D breast
M14 melanoma = tested on: M14 melanoma
SR leukemia = tested on: SR leukemia
HS 578T breast = tested on: HS 578T breast
DU-145 prostate = tested on: DU-145 prostate
XF 498 CNS = tested on: XF 498 CNS
MDA-N = tested on: MDA-N
TK-10 renal = tested on: TK-10 renal
LXFL 529 NSCLC = tested on: LXFL 529 NSCLC
786-0 renal = tested on: 786-0 renal
MDA-MB-231 breast = tested on: MDA-MB-231 breast

Work on `O=C(O)c1ccccc1N=Cc1ccc(N(CCCl)CCCl)cc1` yielded a TGI (SK-MEL-5 melanoma) of over 100 µM, a TGI (IGROV1 ovarian) of over 100 µM and a TGI (HCT-116 colon) of over 100 µM. For the same compound, the TGI (DMS 273 small cell lung) was over 100 µM, the TGI (RXF 393 renal) was over 73.2 µM and the TGI (UO-31 renal) was over 100 µM. It also gave a TGI (NCI/ADR-RES ovarian) of over 100 µM, a TGI (NCI-H23 lung) of over 100 µM and a TGI (SNB-78 CNS) of over 100 µM. It also gave a TGI (SW-620 colon) of over 100 µM, a TGI (KM12 colon) of over 100 µM and a TGI (SNB-75 CNS) of over 100 µM. The TGI (SF-539 CNS) was over 100 µM, the TGI (HCT-15 colon) was over 100 µM and the TGI (OVCAR-4 ovarian) was over 100 µM. The TGI (U251 CNS) was over 100 µM, the TGI (P388 leukemia) was over 100 µM and the TGI (NCI-H522 lung) was over 100 µM. The TGI (CCRF-CEM leukemia) was over 100 µM, the TGI (SF-295 CNS) was over 100 µM and the TGI (RPMI-8226 leukemia) was over 100 µM. For the same compound, the TGI (A498 renal) was over 57.7 µM, the TGI (COLO 205 colon) was over 100 µM and the TGI (OVCAR-5 ovarian) was over 100 µM. It also gave a TGI (UACC-62 melanoma) of over 100 µM, a TGI (MOLT-4 leukemia) of over 100 µM and a TGI (OVCAR-8 ovarian) of over 100 µM. For the same compound, the TGI (A549 NSCLC) was over 100 µM, the TGI (SK-MEL-28 melanoma) was over 100 µM and the TGI (MALME-3M melanoma) was over 100 µM. The TGI (SN12K1 renal) was over 100 µM, the TGI (SK-OV-3 ovarian) was over 100 µM and the TGI (HT29 colon) was over 100 µM. It also gave a TGI (EKVX NSCLC) of over 100 µM, a TGI (DLD-1 colon) of over 100 µM and a TGI (P388/ADR leukemia) of over 100 µM. It also gave a TGI (SNB-19 CNS) of over 100 µM, a TGI (HOP-92 NSCLC) of over 100 µM and a TGI (HL-60(TB) leukemia) of over 100 µM. It also gave a TGI (M19-MEL melanoma) of over 100 µM, a TGI (UACC-257 melanoma) of over 100 µM and a TGI (KM20L2 colon) of over 100 µM. The TGI (NCI-H460 lung) was over 100 µM, the TGI (HCC-2998 colon) was over 100 µM and the TGI (K-562 leukemia) was over 100 µM. For the same compound, the TGI (SK-MEL-2 melanoma) was over 100 µM, the TGI (CAKI-1 renal) was 34.5 µM and the TGI (LOX IMVI melanoma) was over 100 µM. For the same compound, the TGI (SN12C renal) was over 100 µM, the TGI (MCF7 breast) was over 100 µM and the TGI (HOP-18 NSCLC) was over 100 µM. The TGI (SF-268 CNS) was over 100 µM and the TGI (OVCAR-3 ovarian) was over 100 µM.

With `O=C1CC(c2[nH]nc3ccccc23)C(=O)N1c1ccccc1` (configuration not stated) the TGI (SK-MEL-5 melanoma) was over 100 µM, the TGI (IGROV1 ovarian) was over 100 µM and the TGI (HCT-116 colon) was over 100 µM. It also gave a TGI (MDA-MB-435) of over 100 µM, a TGI (DMS 273 small cell lung) of over 100 µM and a TGI (RXF 393 renal) of over 100 µM. It also gave a TGI (UO-31 renal) of over 100 µM, a TGI (NCI/ADR-RES ovarian) of over 100 µM and a TGI (NCI-H23 lung) of over 100 µM. For the same compound, the TGI (SNB-78 CNS) was over 100 µM, the TGI (SW-620 colon) was over 100 µM and the TGI (KM12 colon) was over 100 µM. It also gave a TGI (SNB-75 CNS) of over 100 µM, a TGI (SF-539 CNS) of over 100 µM and a TGI (HCT-15 colon) of over 100 µM. For the same compound, the TGI (NCI-H226 lung) was over 100 µM, the TGI (OVCAR-4 ovarian) was over 100 µM and the TGI (U251 CNS) was over 100 µM. For the same compound, the TGI (NCI-H522 lung) was over 100 µM, the TGI (CCRF-CEM leukemia) was over 71.8 µM and the TGI (SF-295 CNS) was over 100 µM. For the same compound, the TGI (RXF-631 renal) was over 100 µM, the TGI (RPMI-8226 leukemia) was over 100 µM and the TGI (ACHN renal) was over 100 µM. It also gave a TGI (A498 renal) of over 100 µM, a TGI (COLO 205 colon) of over 100 µM and a TGI (OVCAR-5 ovarian) of over 100 µM. It also gave a TGI (HOP-62 NSCLC) of over 100 µM, a TGI (BT-549 breast) of over 100 µM and a TGI (UACC-62 melanoma) of over 100 µM. It also gave a TGI (MOLT-4 leukemia) of over 100 µM, a TGI (DMS 114 small cell lung) of over 100 µM and a TGI (OVCAR-8 ovarian) of over 100 µM. The TGI (A549 NSCLC) was over 100 µM, the TGI (SK-MEL-28 melanoma) was over 100 µM and the TGI (PC-3 prostate) was over 100 µM. The TGI (MALME-3M melanoma) was over 100 µM, the TGI (SK-OV-3 ovarian) was over 100 µM and the TGI (T-47D breast) was over 100 µM. For the same compound, the TGI (HT29 colon) was over 100 µM, the TGI (EKVX NSCLC) was over 100 µM and the TGI (M14 melanoma) was over 100 µM. The TGI (SR leukemia) was over 100 µM, the TGI (DLD-1 colon) was over 100 µM and the TGI (SNB-19 CNS) was over 100 µM. It also gave a TGI (HS 578T breast) of over 100 µM, a TGI (DU-145 prostate) of over 100 µM and a TGI (HOP-92 NSCLC) of over 100 µM. The TGI (HL-60(TB) leukemia) was 70.4 µM, the TGI (M19-MEL melanoma) was over 100 µM and the TGI (UACC-257 melanoma) was over 100 µM. For the same compound, the TGI (KM20L2 colon) was over 100 µM, the TGI (XF 498 CNS) was over 100 µM and the TGI (NCI-H460 lung) was over 100 µM. The TGI (HCC-2998 colon) was over 100 µM, the TGI (K-562 leukemia) was over 80.1 µM and the TGI (SK-MEL-2 melanoma) was over 100 µM. It also gave a TGI (CAKI-1 renal) of over 100 µM, a TGI (LOX IMVI melanoma) of over 100 µM and a TGI (SN12C renal) of over 100 µM. For the same compound, the TGI (MDA-N) was over 100 µM, the TGI (MCF7 breast) was over 100 µM and the TGI (HOP-18 NSCLC) was over 100 µM. The TGI (TK-10 renal) was over 100 µM, the TGI (LXFL 529 NSCLC) was over 100 µM and the TGI (786-0 renal) was over 100 µM. It also gave a TGI (SF-268 CNS) of over 100 µM, a TGI (OVCAR-3 ovarian) of over 100 µM and a TGI (MDA-MB-231 breast) of over 100 µM.
